Where only a bound is given, the exact number is not on record here.

Holding throughout (assay type): cell-based
The target of experiment [1] is T1, human TLR9 (Homo sapiens, UniProt Q9NR96).
T1 sequence (Q9NR96 26-1032): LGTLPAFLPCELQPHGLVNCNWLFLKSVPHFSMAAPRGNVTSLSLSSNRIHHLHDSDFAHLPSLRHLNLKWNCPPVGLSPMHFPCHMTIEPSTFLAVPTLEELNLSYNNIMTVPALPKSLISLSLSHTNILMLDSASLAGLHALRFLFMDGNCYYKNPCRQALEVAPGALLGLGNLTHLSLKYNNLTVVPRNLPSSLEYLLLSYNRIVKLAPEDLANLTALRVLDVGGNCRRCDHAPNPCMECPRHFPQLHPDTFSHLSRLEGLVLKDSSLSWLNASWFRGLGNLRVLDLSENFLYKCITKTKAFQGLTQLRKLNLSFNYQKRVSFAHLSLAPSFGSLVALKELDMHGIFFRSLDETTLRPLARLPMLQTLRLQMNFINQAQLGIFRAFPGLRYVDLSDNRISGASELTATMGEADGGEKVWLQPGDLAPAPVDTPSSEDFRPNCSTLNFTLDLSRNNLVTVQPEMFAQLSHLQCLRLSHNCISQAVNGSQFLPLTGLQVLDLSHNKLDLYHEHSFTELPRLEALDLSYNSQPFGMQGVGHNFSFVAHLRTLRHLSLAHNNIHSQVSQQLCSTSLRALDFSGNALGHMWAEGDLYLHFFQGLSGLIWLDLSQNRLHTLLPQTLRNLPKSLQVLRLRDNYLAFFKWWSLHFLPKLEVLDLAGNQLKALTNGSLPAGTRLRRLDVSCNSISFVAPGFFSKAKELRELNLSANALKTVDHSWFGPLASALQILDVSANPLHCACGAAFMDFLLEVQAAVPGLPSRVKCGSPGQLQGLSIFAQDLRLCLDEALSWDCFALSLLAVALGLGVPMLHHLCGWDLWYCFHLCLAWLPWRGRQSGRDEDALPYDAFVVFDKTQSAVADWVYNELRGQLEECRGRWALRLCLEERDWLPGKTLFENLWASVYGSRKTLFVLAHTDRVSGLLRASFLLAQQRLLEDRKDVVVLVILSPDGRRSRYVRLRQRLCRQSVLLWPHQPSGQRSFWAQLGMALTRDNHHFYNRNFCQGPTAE
Kind of experiment: TLR9 inhibition reporter assay (HEK-Blue cells, SEAP reporter). Conditions: HEK-Blue cells overexpressing human TLR9; stimulated with ODN2006 5 nM; 22 hour incubation; SEAP readout. In short, it runs like this: (§1)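 HEK-Blue cells with an NF-κB/AP-1-driven SEAP reporter were pre-treated 30 min at room temperature with compound (0.05 nM–50 μM), then stimulated with gardiquimod 7.5 μM (TLR7), R848 15.9 μM (TLR8) or ODN2006 5 nM (TLR9). After 22 h at 37 °C, SEAP was read; % inhibition was referenced to agonist+DMSO and known-inhibitor wells.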

The target in experiment [2] is T2, human TLR8 (Homo sapiens, UniProt Q9NR97).
T2 sequence (Q9NR97 27-1041): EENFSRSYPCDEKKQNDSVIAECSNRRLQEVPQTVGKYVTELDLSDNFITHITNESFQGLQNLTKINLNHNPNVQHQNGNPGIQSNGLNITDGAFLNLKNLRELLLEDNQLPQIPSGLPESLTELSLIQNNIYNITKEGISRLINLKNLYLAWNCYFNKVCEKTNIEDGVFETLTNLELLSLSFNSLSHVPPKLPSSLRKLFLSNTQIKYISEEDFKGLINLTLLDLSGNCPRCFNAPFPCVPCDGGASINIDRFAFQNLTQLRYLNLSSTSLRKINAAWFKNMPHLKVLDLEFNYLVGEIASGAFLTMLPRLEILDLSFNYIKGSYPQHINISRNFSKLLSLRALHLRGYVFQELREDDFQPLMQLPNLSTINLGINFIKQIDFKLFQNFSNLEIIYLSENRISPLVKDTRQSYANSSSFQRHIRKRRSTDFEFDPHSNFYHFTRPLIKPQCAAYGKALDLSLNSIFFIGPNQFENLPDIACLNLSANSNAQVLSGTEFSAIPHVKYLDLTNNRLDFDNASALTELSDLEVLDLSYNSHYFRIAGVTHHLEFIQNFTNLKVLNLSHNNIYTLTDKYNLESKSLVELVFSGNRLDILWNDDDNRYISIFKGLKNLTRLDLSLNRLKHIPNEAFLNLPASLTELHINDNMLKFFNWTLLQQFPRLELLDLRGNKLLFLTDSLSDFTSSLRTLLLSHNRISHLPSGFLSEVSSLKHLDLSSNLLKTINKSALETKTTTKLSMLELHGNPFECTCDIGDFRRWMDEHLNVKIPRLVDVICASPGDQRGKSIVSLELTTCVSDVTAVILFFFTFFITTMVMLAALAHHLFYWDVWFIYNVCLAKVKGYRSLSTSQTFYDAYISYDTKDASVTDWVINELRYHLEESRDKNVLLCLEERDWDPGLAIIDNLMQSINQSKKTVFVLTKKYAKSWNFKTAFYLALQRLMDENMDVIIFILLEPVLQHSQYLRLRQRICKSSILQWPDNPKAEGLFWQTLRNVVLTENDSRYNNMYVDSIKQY
The experiment is described as follows: TLR8 inhibition reporter assay (HEK-Blue cells, SEAP reporter). Conditions: HEK-Blue cells overexpressing human TLR8; stimulated with R848 15.9 μM; 22 hour incubation; SEAP readout. In short, it runs like this: as §1

Experiment [3] deals with T3, human TLR7 (Homo sapiens, UniProt Q9NYK1).
T3 sequence (Q9NYK1 27-1049): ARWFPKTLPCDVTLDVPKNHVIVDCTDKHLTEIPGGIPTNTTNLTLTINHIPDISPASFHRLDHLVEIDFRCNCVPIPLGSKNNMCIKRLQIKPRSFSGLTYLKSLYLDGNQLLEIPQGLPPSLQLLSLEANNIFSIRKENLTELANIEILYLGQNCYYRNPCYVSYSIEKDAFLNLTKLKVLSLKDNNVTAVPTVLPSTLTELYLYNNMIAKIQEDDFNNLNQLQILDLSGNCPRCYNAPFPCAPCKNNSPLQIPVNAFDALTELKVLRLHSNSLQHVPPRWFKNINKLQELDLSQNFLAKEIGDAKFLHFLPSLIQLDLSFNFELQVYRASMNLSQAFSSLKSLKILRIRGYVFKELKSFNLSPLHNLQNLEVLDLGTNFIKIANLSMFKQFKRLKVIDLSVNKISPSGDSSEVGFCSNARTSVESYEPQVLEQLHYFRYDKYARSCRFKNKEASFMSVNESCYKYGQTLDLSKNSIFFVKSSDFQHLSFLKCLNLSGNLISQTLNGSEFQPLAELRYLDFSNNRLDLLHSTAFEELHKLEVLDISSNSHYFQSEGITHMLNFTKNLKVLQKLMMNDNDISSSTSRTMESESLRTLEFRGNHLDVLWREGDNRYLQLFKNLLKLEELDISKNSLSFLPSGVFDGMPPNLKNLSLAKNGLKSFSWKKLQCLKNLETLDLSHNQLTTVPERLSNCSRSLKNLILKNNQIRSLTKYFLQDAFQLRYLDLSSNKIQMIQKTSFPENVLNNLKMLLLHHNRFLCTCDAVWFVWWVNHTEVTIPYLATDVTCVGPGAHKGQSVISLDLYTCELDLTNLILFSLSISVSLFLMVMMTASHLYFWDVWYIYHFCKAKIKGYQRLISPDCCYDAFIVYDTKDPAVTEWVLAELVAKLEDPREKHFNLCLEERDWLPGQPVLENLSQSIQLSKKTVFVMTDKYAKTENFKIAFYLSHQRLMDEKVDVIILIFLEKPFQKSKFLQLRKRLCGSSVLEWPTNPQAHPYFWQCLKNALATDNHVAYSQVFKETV
Kind of experiment: TLR7 inhibition reporter assay (HEK-Blue cells, SEAP reporter). Conditions: HEK-Blue cells overexpressing human TLR7; stimulated with gardiquimod 7.5 μM; 22 hour incubation; SEAP readout. The procedure, abridged:
as §1

For `COc1ccc(-c2cn3c(n2)CCC(C2CCN(C4CCN(CC5CC5)CC4)CC2)C3)cc1OC` (single isomer, unassigned) [Example 57, 6-(1′-(cyclopropylmethyl)-[1,4′-bipiperidin]-4-yl)-2-(3,4-dimethoxyphenyl)-5,6,7,8-tetrahydroimidazo[1,2-a]pyridine], the IC50 in experiment [1] is 0.036 µM; in experiment [2], greater than 50 µM; in experiment [3] it was 4.2 µM.
For `Cc1cc(C2CCN(C3CC4CCC(C3)N4C(C)C)CC2)cn2cc(-c3ccc(S(C)(=O)=O)cc3)nc12` (single isomer, unassigned) [Example 63, 6-(1-(8-isopropyl-8-azabicyclo[3.2.1]octan-3-yl)piperidin-4-yl)-8-methyl-2-(4-(methylsulfonyl)phenyl)imidazo[1,2-a]pyridine], the half-inhibitory concentration (IC50) was 0.097 µM in experiment [1], 9.5 µM in experiment [2] and 5.8 µM in experiment [3].
With `CC(C)N1C2CCC1CC(N1CCC(c3cc(F)c4nc(-c5ccc(S(C)(=O)=O)cc5)cn4c3)CC1)C2` (single isomer, unassigned) [Example 68, 8-fluoro-6-(1-(8-isopropyl-8-azabicyclo[3.2.1]octan-3-yl)piperidin-4-yl)-2-(4-(methylsulfonyl)phenyl)imidazo[1,2-a]pyridine], the values for the 50% inhibitory concentration (IC50) in experiment [1], in experiment [2] and in experiment [3] were 0.11 µM, greater than 50 µM and 8.2 µM, respectively.
For the compound `CC(C)N1C2CCC1CC(N1CCC(c3cc(F)c4nc(-c5ccc(S(C)(=O)=O)cc5)cn4c3)CC1)C2` (single isomer, unassigned) [Example 69, 8-fluoro-6-(1-(8-isopropyl-8-azabicyclo[3.2.1]octan-3-yl)piperidin-4-yl)-2-(4-(methylsulfonyl)phenyl)imidazo[1,2-a]pyridine], the concentration for half-maximal inhibition (IC50) in experiment [1] is 0.026 µM; in experiment [2] it was greater than 50 µM; in experiment [3] it was 3.4 µM.
For `CC(C)N1CCCC(N2CCC(c3cc(F)c4nc(-c5ccc(S(C)(=O)=O)cc5)cn4c3)CC2)CC1` (single isomer, unassigned) [Example 71, 8-fluoro-6-(1-(1-isopropylazepan-4-yl)piperidin-4-yl)-2-(4-(methylsulfonyl)phenyl)imidazo[1,2-a]pyridine], in that order: 0.039 µM, greater than 50 µM and 3 µM.
Consider `CC(C)N1CCCC(N2CCC(c3cc(F)c4nc(-c5ccc(S(C)(=O)=O)cc5)cn4c3)CC2)CC1` (single isomer, unassigned) [Example 72, 8-fluoro-6-(1-(1-isopropylazepan-4-yl)piperidin-4-yl)-2-(4-(methylsulfonyl)phenyl)imidazo[1,2-a]pyridine], for which the half-inhibitory concentration (IC50) in experiment [1] was 0.0026 µM; in experiment [2] it was greater than 50 µM; in experiment [3] it was 3 µM.
The matching figures for `COc1ccc(-c2cn3c(n2)CC[C@H](C2CCN(C4CC5CCC(C4)N5CC(C)C)CC2)C3)cc1OC` (single isomer, unassigned) [Example 75]: 0.034 µM, greater than 25 µM and 2.9 µM.
For the compound `COc1ccc(-c2cn3c(n2)CC[C@H](C2CCN(C4CC5CCC(C4)N5CC(C)C)CC2)C3)cc1OC` (single isomer, unassigned) [Example 76], the half-inhibitory concentration (IC50) in experiment [1] is 0.052 µM; in experiment [2] it was greater than 25 µM; in experiment [3], 1.6 µM.
For `COc1ccc(-c2cn3c(n2)CC[C@@H](C2CCN(C4CC5CCC(C4)N5CC(C)C)CC2)C3)cc1OC` (single isomer, unassigned) [Example 77], in that order: 0.064 µM, greater than 25 µM and 3.6 µM.
For `COc1ccc(-c2cn3c(n2)CC[C@@H](C2CCN(C4CC5CCC(C4)N5CC(C)C)CC2)C3)cc1OC` (single isomer, unassigned) [Example 78], in that order: 0.108 µM, greater than 25 µM and 8.6 µM.
For `CC(C)CN1C2CCC1CC(N1CCC([C@H]3CCc4nc(-c5ccc(S(C)(=O)=O)cc5)cn4C3)CC1)C2` (single isomer, unassigned) [Example 79], in that order: 0.171 µM, 16.7 µM and 16.7 µM.
For `CC(C)CN1C2CCC1CC(N1CCC([C@H]3CCc4nc(-c5ccc(S(C)(=O)=O)cc5)cn4C3)CC1)C2` (single isomer, unassigned) [Example 80], the IC50 is 0.052 µM in experiment [1], greater than 50 µM in experiment [2] and greater than 50 µM in experiment [3].
Turning to `CC(C)CN1C2CCC1CC(N1CCC([C@@H]3CCc4nc(-c5ccc(S(C)(=O)=O)cc5)cn4C3)CC1)C2` (single isomer, unassigned) [Example 82], the IC50 in experiment [1] was 0.021 µM; in experiment [2], greater than 50 µM; in experiment [3], 9.2 µM.

Values taken from US12486267B2, “Imidazo[1,2-A]pyridine and [1,2,4]triazolo[1,5-A]pyridine derivatives as TLR9 inhibitors for the treatment of fibrosis” (BRISTOL-MYERS SQUIBB COMPANY, priority 2020, dated 2025).
